{"source": "patent US5358947A", "about": "“Angiotensin II receptor blocking 2,3-substituted pyrazolo[1,5-a]-1,3,5-triazin-4(3H)-ones” (American Cyanamid Company, priority 1993, dated 1994)", "system": "ANGIOTENSIN II (AII) VASOPRESSOR RESPONSE", "test": "AII Challenge: angiotensin II (AII) vasopressor response in conscious rats", "assay_type": "in vivo", "design": "Response After AII / Change / Average Change: unit not given here", "settings": "10 mg/kg i.v.; for Response After AII / Change / Control Before AII: individual rat; for Control Before AII: in mmHg (unit assumed); for % Inhibition / Average Change: n = 2", "in_short": "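Conscious male Okamoto-Aoki SHR (16-20 weeks, ~330 g), aorta/vena cava cannulated, challenged with AII 0.05 and 0.1 ug/kg i.v. before and at 30-300 min after compound dosed i.v., i.p. or orally. Systolic pressure rise expressed relative to each rat's predose response (100%).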", "key": {"[1]": {"settings": "AII 0.05 mcg/kg, 30 min post dose"}, "[2]": {"settings": "AII 0.05 mcg/kg, 30 min post dose, listed as Ex. 21, potassium salt"}, "[3]": {"settings": "AII 0.05 mcg/kg, 60 min post dose, listed as Ex. 21, potassium salt"}, "[4]": {"settings": "AII 0.05 mcg/kg, 90 min post dose, listed as Ex. 21, potassium salt"}, "[5]": {"settings": "AII 0.05 mcg/kg, 120 min post dose, listed as Ex. 21, potassium salt"}, "[6]": {"settings": "AII 0.05 mcg/kg, 180 min post dose, listed as Ex. 21, potassium salt"}, "[7]": {"settings": "AII 0.05 mcg/kg, 240 min post dose, listed as Ex. 21, potassium salt"}, "[8]": {"settings": "AII 0.05 mcg/kg, 300 min post dose, listed as Ex. 21, potassium salt"}, "[9]": {"settings": "AII 0.1 mcg/kg, 30 min post dose"}, "[10]": {"settings": "AII 0.1 mcg/kg, 30 min post dose, listed as Ex. 21, potassium salt"}, "[11]": {"settings": "AII 0.1 mcg/kg, 60 min post dose, listed as Ex. 21, potassium salt"}, "[12]": {"settings": "AII 0.1 mcg/kg, 90 min post dose, listed as Ex. 21, potassium salt"}, "[13]": {"settings": "AII 0.1 mcg/kg, 120 min post dose, listed as Ex. 21, potassium salt"}, "[14]": {"settings": "AII 0.1 mcg/kg, 180 min post dose, listed as Ex. 21, potassium salt"}, "[15]": {"settings": "AII 0.1 mcg/kg, 240 min post dose, listed as Ex. 21, potassium salt"}, "[16]": {"settings": "AII 0.1 mcg/kg, 300 min post dose, listed as Ex. 21, potassium salt"}}, "note": "Where “and” joins values, the source holds several entries; their conditions need not be identical. Identical values can stand only once. Counter-ions that a name gives are not always drawn.", "data": [{"smiles": "CCCCc1nc2ccnn2c(=O)n1Cc1ccc(-c2ccccc2-c2nn[nH]n2)cc1", "note": "[Example 21, 2-Butyl-3-[[2'-(1H-tetrazol-5-yl)-[[1,1'-biphenyl]-4-yl]methyl]-pyrazolo[1,5-a]-1,3,5-triazin-4(3H)-one potassium salt]", "values": [{"measurement": "Response After AII", "setting": "[1]", "value": 220}, {"measurement": "Change", "setting": "[2]", "value": "5 and 25"}, {"measurement": "Response After AII", "setting": "[2]", "value": 225}, {"measurement": "Control Before AII", "setting": "[2]", "value": "215 and 200"}, {"measurement": "% Inhibition", "setting": "[1]", "value": 65, "unit": "%"}, {"measurement": "Average Change", "setting": "[1]", "value": 15}, {"measurement": "Change", "setting": "[3]", "value": "25 and 40"}, {"measurement": "Response After AII", "setting": "[3]", "value": "235 and 250"}, {"measurement": "Control Before AII", "setting": "[3]", "value": 210}, {"measurement": "% Inhibition", "setting": "[3]", "value": 24, "unit": "%"}, {"measurement": "Average Change", "setting": "[3]", "value": 32.5}, {"measurement": "Change", "setting": "[4]", "value": 20}, {"measurement": "Response After AII", "setting": "[4]", "value": "230 and 260"}, {"measurement": "Control Before AII", "setting": "[4]", "value": "210 and 240"}, {"measurement": "% Inhibition", "setting": "[4]", "value": 53, "unit": "%"}, {"measurement": "Average Change", "setting": "[4]", "value": 20}, {"measurement": "Control Before AII", "setting": "AII 0.05 mcg/kg, 120 min post dose", "value": 220}, {"measurement": "Change", "setting": "[5]", "value": "20 and 30"}, {"measurement": "Response After AII", "setting": "[5]", "value": "240 and 255"}, {"measurement": "Control Before AII", "setting": "[5]", "value": 225}, {"measurement": "% Inhibition", "setting": "[5]", "value": 41, "unit": "%"}, {"measurement": "Average Change", "setting": "[5]", "value": 25}, {"measurement": "Change", "setting": "[6]", "value": "21 and 45"}, {"measurement": "Response After AII", "setting": "[6]", "value": "245 and 255"}, {"measurement": "Control Before AII", "setting": "[6]", "value": "224 and 210"}, {"measurement": "% Inhibition", "setting": "[6]", "value": 22, "unit": "%"}, {"measurement": "Average Change", "setting": "[6]", "value": 33}, {"measurement": "Change", "setting": "[7]", "value": "25 and 35"}, {"measurement": "Response After AII", "setting": "[7]", "value": "245 and 250"}, {"measurement": "Control Before AII", "setting": "[7]", "value": "220 and 215"}, {"measurement": "% Inhibition", "setting": "[7]", "value": 29, "unit": "%"}, {"measurement": "Average Change", "setting": "[7]", "value": 30}, {"measurement": "Change", "setting": "[8]", "value": "31 and 40"}, {"measurement": "Response After AII", "setting": "[8]", "value": "245 and 250"}, {"measurement": "Control Before AII", "setting": "[8]", "value": "214 and 210"}, {"measurement": "% Inhibition", "setting": "[8]", "value": 16, "unit": "%"}, {"measurement": "Average Change", "setting": "[8]", "value": 35.5}, {"measurement": "Response After AII", "setting": "[9]", "value": 230}, {"measurement": "Change", "setting": "[10]", "value": "15 and 30"}, {"measurement": "Response After AII", "setting": "[10]", "value": 225}, {"measurement": "Control Before AII", "setting": "[10]", "value": "210 and 200"}, {"measurement": "% Inhibition", "setting": "[9]", "value": 58, "unit": "%"}, {"measurement": "Average Change", "setting": "[9]", "value": 22.5}, {"measurement": "Change", "setting": "[11]", "value": "20 and 30"}, {"measurement": "Response After AII", "setting": "[11]", "value": "245 and 255"}, {"measurement": "Control Before AII", "setting": "[11]", "value": 225}, {"measurement": "% Inhibition", "setting": "[11]", "value": 53, "unit": "%"}, {"measurement": "Average Change", "setting": "[11]", "value": 25}, {"measurement": "Change", "setting": "[12]", "value": "30 and 35"}, {"measurement": "Response After AII", "setting": "[12]", "value": "245 and 260"}, {"measurement": "Control Before AII", "setting": "[12]", "value": "215 and 225"}, {"measurement": "% Inhibition", "setting": "[12]", "value": 39, "unit": "%"}, {"measurement": "Average Change", "setting": "[12]", "value": 32.5}, {"measurement": "Change", "setting": "[13]", "value": "35 and 40"}, {"measurement": "Response After AII", "setting": "[13]", "value": "255 and 265"}, {"measurement": "Control Before AII", "setting": "[13]", "value": "220 and 225"}, {"measurement": "% Inhibition", "setting": "[13]", "value": 30, "unit": "%"}, {"measurement": "Average Change", "setting": "[13]", "value": 37.5}, {"measurement": "Control Before AII", "setting": "AII 0.1 mcg/kg, 180 min post dose", "value": 240}, {"measurement": "Change", "setting": "[14]", "value": "30 and 35"}, {"measurement": "Response After AII", "setting": "[14]", "value": "255 and 275"}, {"measurement": "Control Before AII", "setting": "[14]", "value": 225}, {"measurement": "% Inhibition", "setting": "[14]", "value": 39, "unit": "%"}, {"measurement": "Average Change", "setting": "[14]", "value": 32.5}, {"measurement": "Change", "setting": "[15]", "value": 40}, {"measurement": "Response After AII", "setting": "[15]", "value": "265 and 260"}, {"measurement": "Control Before AII", "setting": "[15]", "value": "225 and 220"}, {"measurement": "% Inhibition", "setting": "[15]", "value": 25, "unit": "%"}, {"measurement": "Average Change", "setting": "[15]", "value": 40}, {"measurement": "Change", "setting": "[16]", "value": "50 and 60"}, {"measurement": "Response After AII", "setting": "[16]", "value": "265 and 280"}, {"measurement": "Control Before AII", "setting": "[16]", "value": "215 and 220"}, {"measurement": "% Inhibition", "setting": "[16]", "value": -3, "unit": "%"}, {"measurement": "Average Change", "setting": "[16]", "value": 55}]}]}
